According to ChEMBL document CHEMBL1154017, “Functionalization of the A ring of pyridoacridine as a route toward greater structural diversity. Synthesis of an octacyclic analogue of eilatin” (Bioorg Med Chem Lett, 2009):
Active and inactive are the calls of the source. The rule behind the calls is not given here.

Tests used:
HT29-AK = assay: Cytotoxic activity against human HT29-AK cells assessed as cell survival at 5 uM; format: functional, cell-based
A-431 [1] = assay: Cytotoxic activity against human A431 cells assessed as cell survival at 5 uM; format: functional; details: read-out: Activity
[2] = Dissociation constant, pKa at physiological pH; format: physicochemical
[3] = Partition coefficient, log P of the compound; format: physicochemical; details: octanol/water
[4] = Cytostatic activity against human HT29-AK cells; format: functional
[5] = Solubility in water; format: physicochemical; details: buffer
A-431 [6] = assay: Cytostatic activity against human A431 cells; format: functional, cell-based

Row | Structure (SMILES) | Activity (HT29-AK) | viability at 5 µM (A-431 [1]) [%] | pKa [2] | logP [3] | IC60 [4] [µM] | solubility [5] | IC50 (A-431 [6]) [µM]
1 | CCOc1ccc2c3c(nccc13)-c1ccc3nc4c5cccnc5c5ncccc5c4nc3c1N2 | inactive | 85 | – | – | – | – | –
2 | Clc1ccc2c(c1)Nc1cccc3ccnc-2c13 | – | – | 4.5 | 3.69 | – | – | –
3 | CCOc1ccc2c3c(nccc13)-c1ccc(N)cc1N2 | – | – | 5.3 | 2.62 | 1.35 | Soluble | 2.1
